Active and inactive are the calls of the source. The rule behind the calls is not given here. Residues, ends and D or L forms follow the SMILES beside them. *: point of attachment. Cbz = O=C(OCc1ccccc1)*
Tests used:
A2780 [1] = assay: Induction of apoptosis in cisplatin-resistant human A2780 cells assessed as decrease in Cdc25C expression at 2 uM by immunoblot analysis; format: functional, cell-based; conditions: TDE = time-dependent effect
A2780 [2] = assay: Induction of apoptosis in cisplatin-resistant human A2780 cells assessed as change in Wee1 level at 2 uM by immunoblot analysis; format: functional, cell-based
A2780 [3] = assay: Induction of apoptosis in cisplatin-resistant human A2780 cells assessed as decrease in Cdc2 expression at 2 uM by immunoblot analysis; format: functional, cell-based; conditions: TDE = time-dependent effect
A2780 [4] = assay: Induction of apoptosis in cisplatin-resistant human A2780 cells overexpressing PTEN assessed as enhancement of cleaved PARP by Western blotting; format: functional, cell-based
A2780 [5] = assay: Induction of apoptosis in cisplatin-resistant human A2780 cells overexpressing PTEN assessed as enhancement of p53 by Western blotting; format: functional, cell-based
A2780 [6] = assay: Induction of apoptosis in cisplatin-resistant human A2780 cells assessed as enhancement of p27 level at 2 uM by immunoblot analysis; format: functional, cell-based
A2780 [7] = assay: Induction of apoptosis in cisplatin-resistant human A2780 cells assessed as activation of caspase cascade at 2 uM after 6 to 24 hrs by Western blotting; format: functional, cell-based
A2780 [8] = assay: Induction of apoptosis in cisplatin-resistant human A2780 cells assessed as inhibition of pPTEN degradation at 2 uM by immunoblot analysis; format: functional, cell-based
A2780 [9] = assay: Induction of apoptosis in cisplatin-resistant human A2780 cells overexpressing PTEN assessed as inhibition of pAkt by Western blotting; format: functional, cell-based
A2780 [10] = assay: Induction of apoptosis in cisplatin-resistant human A2780 cells assessed as decrease in phosphorylated Akt level at 2 uM after 12 hrs by immunoblot analysis; format: functional, cell-based
A2780 [11] = assay: Induction of apoptosis in cisplatin-resistant human A2780 cells assessed as increase in TNFR1 expression at 2 uM after 6 to 24 hrs by immunoblot analysis; format: functional, cell-based
A2780 [12] = assay: Induction of apoptosis in cisplatin-resistant human A2780 cells assessed as decrease in CycB1 expression at 2 uM by immunoblot analysis; format: functional, cell-based; conditions: TDE = time-dependent effect
A2780 [13] = assay: Induction of apoptosis in cisplatin-resistant human A2780 cells assessed as decrease in CycD1 expression at 2 uM by immunoblot analysis; format: functional, cell-based; conditions: TDE = time-dependent effect
A2780 [14] = assay: Reversal of induction of apoptosis in cisplatin-resistant human A2780 cells assessed as inhibition of cleaved PARP by immunoblot analysis in presence of PTEN-specific siRNA; format: functional, cell-based
A2780 [15] = assay: Reversal of induction of apoptosis in cisplatin-resistant human A2780 cells assessed as increase of Akt phosphorylation by immunoblot analysis in presence of PTEN-specific siRNA; format: functional, cell-based
A2780 [16] = assay: Induction of apoptosis in cisplatin-resistant human A2780 cells assessed as decrease in pERK1/2 level at 2 uM after 48 hrs by immunoblot analysis; format: functional, cell-based
CHO = assay: Cell viability of CHO cells after 24 hrs by MTT assay; format: functional, cell-based; conditions: Cricetulus griseus
A2780 [17] = assay: Reversal of induction of apoptosis in cisplatin-resistant human A2780 cells assessed as decrease of p53 level by immunoblot analysis in presence of PTEN-specific siRNA; format: functional, cell-based
A2780 [18] = assay: Cell viability of cisplatin-resistant human A2780 cells after 24 hrs by MTT assay; format: functional, cell-based; conditions: A2780, 24 h
A2780 [19] = assay: Induction of apoptosis in cisplatin-resistant human A2780 cells assessed as decrease in pERK1/2 level at 2 uM after 24 hrs by immunoblot analysis; format: functional, cell-based
A2780 [20] = assay: Induction of apoptosis in cisplatin-resistant human A2780 cells assessed as enhancement of p53 level at 2 uM by immunoblot analysis; format: functional, cell-based
A2780 [21] = assay: Induction of apoptosis in cisplatin-resistant human A2780 cells assessed as enhancement of p53 phosphorylation at 2 uM by immunoblot analysis; format: functional, cell-based
A2780 [22] = assay: Induction of apoptosis in cisplatin-resistant human A2780 cells assessed as accumulation at G2/M phase at 2 uM after 3 hrs by flow cytometry relative to control; format: functional
A2780 [23] = assay: Induction of apoptosis in cisplatin-resistant human A2780 cells assessed as accumulation at G2/M phase at 2 uM after 12 hrs by flow cytometry relative to control; format: functional
A2780 [24] = assay: Induction of apoptosis in cisplatin-resistant human A2780 cells assessed as decrease in CycA expression at 2 uM by immunoblot analysis; format: functional, cell-based; conditions: TDE = time-dependent effect
A2780 [25] = assay: Induction of apoptosis in cisplatin-resistant human A2780 cells assessed as increase in FasL receptor expression at 2 uM by immunoblot analysis; format: functional, cell-based; conditions: TDE = time-dependent effect
A2780 [26] = assay: Reversal of induction of apoptosis in cisplatin-resistant human A2780 cells assessed as accumulation at sub-G1 phase at 2 uM after 24 hrs by flow cytometry in presence of z-VAD-fmk; format: functional, cell-based
A2780 [27] = assay: Induction of apoptosis in cisplatin-resistant human A2780 cells overexpressing PTEN assessed as enhancement of cleaved caspase-3 by Western blotting; format: functional, cell-based
A2780 [28] = assay: Induction of apoptosis in cisplatin-resistant human A2780 cells assessed as accumulation at sub-G1 phase at 2 uM after 24 hrs by flow cytometry relative to control; format: functional
A2780 [29] = assay: Induction of apoptosis in cisplatin-resistant human A2780 cells assessed as increase in Fas/CD95 receptor expression at 2 uM after 6 to 24 hrs by immunoblot analysis; format: functional, cell-based
A2780 [30] = assay: Induction of apoptosis in cisplatin-resistant human A2780 cells assessed as inhibition of PTEN degradation at 2 uM by immunoblot analysis; format: functional, cell-based
A2780 [31] = assay: Induction of apoptosis in cisplatin-resistant human A2780 cells overexpressing PTEN assessed as enhancement of p21 by Western blotting; format: functional, cell-based
A2780 [32] = assay: Reversal of induction of apoptosis in cisplatin-resistant human A2780 cells assessed as inhibition of cleaved caspase-7 by immunoblot analysis in presence of PTEN-specific siRNA; format: functional, cell-based
A2780 [33] = assay: Reversal of induction of apoptosis in cisplatin-resistant human A2780 cells assessed as suppression of PTEN by immunoblot analysis in presence of PTEN-specific siRNA; format: functional, cell-based
A2780 [34] = assay: Reversal of induction of apoptosis in cisplatin-resistant human A2780 cells assessed as decrease of p21 level by immunoblot analysis in presence of PTEN-specific siRNA; format: functional, cell-based
A2780 [35] = assay: Reversal of induction of apoptosis in cisplatin-resistant human A2780 cells assessed as inhibition of cleaved caspase-3 by immunoblot analysis in presence of PTEN-specific siRNA; format: functional, cell-based
A2780 [36] = assay: Induction of apoptosis in cisplatin-resistant human A2780 cells assessed as accumulation at G2/M phase at 2 uM after 6 hrs by flow cytometry relative to control; format: functional
A2780 [37] = assay: Cell viability of cisplatin-resistant human A2780 cells overexpressing PTEN at 2 uM after 24 hrs by MTT assay; format: functional, cell-based
A2780 [38] = assay: Induction of apoptosis in cisplatin-resistant human A2780 cells assessed as enhancement of p21 level at 2 uM by immunoblot analysis; format: functional, cell-based
A2780 [39] = assay: Induction of apoptosis in cisplatin-resistant human A2780 cells assessed as decrease in MDM2 level at 2 uM by immunoblot analysis; format: functional, cell-based; conditions: TDE = time-dependent effect
A2780 [40] = assay: Cell viability of human cisplatin-sensitive human A2780 cells after 24 hrs by MTT assay; format: functional, cell-based; conditions: A2780, 24 h

Question: For O=C1/C(=C/c2ccccc2F)CNC/C1=C\c1ccccc1F, which Activity (A2780 [1]) is on record?
Answer: tde

Question: And the Activity (A2780 [2])?
Answer: inactive

Question: And the Activity (A2780 [3])?
Answer: tde

Question: What about the Activity (A2780 [4]) of the same molecule?
Answer: Active

Question: What about the Activity (A2780 [5]) of the same molecule?
Answer: Active

Question: And the Activity (A2780 [6])?
Answer: inactive

Question: What about the Activity (A2780 [7]) of the same molecule?
Answer: Active

Question: What about the Activity (A2780 [8]) of the same molecule?
Answer: Active

Question: What about the Activity (A2780 [9]) of the same molecule?
Answer: Active

Question: And the Activity (A2780 [10])?
Answer: Active

Question: What about the Activity (A2780 [11]) of the same molecule?
Answer: inactive

Question: What about the Activity (A2780 [12]) of the same molecule?
Answer: tde

Question: And the Activity (A2780 [13])?
Answer: tde

Question: What about the Activity (A2780 [14]) of the same molecule?
Answer: Active

Question: What about the Activity (A2780 [15]) of the same molecule?
Answer: Active

Question: What about the Activity (A2780 [16]) of the same molecule?
Answer: Active

Question: And the IC50 (CHO)?
Answer: 4600 nM

Question: What about the Activity (A2780 [17]) of the same molecule?
Answer: Active

Question: What about the IC50 (A2780 [18]) of the same molecule?
Answer: 650 nM

Question: And the Activity (A2780 [19])?
Answer: Active

Question: And the Activity (A2780 [20])?
Answer: Active

Question: What about the Activity (A2780 [21]) of the same molecule?
Answer: Active

Question: And the Activity (A2780 [22])?
Answer: 27.3%

Question: What about the Activity (A2780 [23]) of the same molecule?
Answer: 57.5%

Question: What about the Activity (A2780 [24]) of the same molecule?
Answer: tde

Question: What about the Activity (A2780 [25]) of the same molecule?
Answer: tde

Question: What about the Activity (A2780 [26]) of the same molecule?
Answer: Active

Question: What about the Activity (A2780 [27]) of the same molecule?
Answer: Active

Question: What about the Activity (A2780 [28]) of the same molecule?
Answer: 35.3%

Question: And the Activity (A2780 [29])?
Answer: inactive

Question: And the Activity (A2780 [30])?
Answer: Active

Question: And the Activity (A2780 [31])?
Answer: Active

Question: And the Activity (A2780 [32])?
Answer: Active

Question: What about the Activity (A2780 [33]) of the same molecule?
Answer: Active

Question: What about the Activity (A2780 [34]) of the same molecule?
Answer: Active

Question: What about the Activity (A2780 [35]) of the same molecule?
Answer: Active

Question: And the Activity (A2780 [36])?
Answer: 36.8%

Question: What about the Activity (A2780 [37]) of the same molecule?
Answer: Active

Question: And the Activity (A2780 [38])?
Answer: Active

Question: And the Activity (A2780 [39])?
Answer: tde

Question: What about the IC50 (A2780 [40]) of the same molecule?
Answer: 500 nM

Question: For CC(C)C[C@@H](C=O)NC(=O)[C@H](CC(C)C)NC(=O)[C@H](CC(C)C)NC(=O)OCc1ccccc1 (Cbz-Leu-Leu-Leu-aldehyde), which Activity (A2780 [30]) is on record?
Answer: Active

Question: Which Activity (A2780 [10]) does the source give for O=c1cc(N2CCOCC2)oc2c(-c3ccccc3)cccc12 here?
Answer: Active
